Source: ChEMBL document CHEMBL4819021, “Paratrimerins J-Y, Dimeric Coumarins Isolated from the Stems of Paramignya trimera” (J Nat Prod, 2021)
Activity calls are given as the source filed them. The rule behind the calls is not given here.

Experiments:
Assay type in all cases: functional, cell-based
HT-29 = experiment: Cytotoxicity against human HT-29 cells harboring Ras/Raf mutant assessed as reduction in cell viability measured after 72 hrs by MTS assay; details: HT-29, 72 h
Huh-7 = experiment: Cytotoxicity against human Huh-7 cells assessed as reduction in cell viability measured after 72 hrs by MTS assay; details: Huh-7, 72 h
HT-1080 = experiment: Cytotoxicity against human HT-1080 cells assessed as reduction in cell viability measured after 72 hrs by MTS assay; details: HT-1080, 72 h
MDA-MB-468 = experiment: Cytotoxicity against human MDA-MB-468 cells assessed as reduction in cell viability at 40 uM measured after 72 hrs by MTS assay
HCC38 = experiment: Cytotoxicity against human HCC38 cells assessed as reduction in cell viability at 40 uM measured after 72 hrs by MTS assay
RKO = experiment: Cytotoxicity against human RKO cells assessed as reduction in cell viability at 40 uM measured after 72 hrs by MTS assay
Hs-578T = experiment: Cytotoxicity against human Hs-578T cells assessed as reduction in cell viability at 40 uM measured after 72 hrs by MTS assay
HCT-116 = experiment: Cytotoxicity against human HCT-116 cells assessed as reduction in cell viability at 40 uM measured after 72 hrs by MTS assay
HCT-8 = experiment: Cytotoxicity against human HCT-8 cells assessed as reduction in cell viability at 40 uM measured after 72 hrs by MTS assay
SW480 = experiment: Cytotoxicity against human SW480 cells assessed as reduction in cell viability at 40 uM measured after 72 hrs by MTS assay
COLO 205 = experiment: Cytotoxicity against human COLO 205 cells assessed as reduction in cell viability at 40 uM measured after 72 hrs by MTS assay
HCC1428 = experiment: Cytotoxicity against human HCC1428 cells assessed as reduction in cell viability at 40 uM measured after 72 hrs by MTS assay
SK-BR-3 = experiment: Cytotoxicity against human SK-BR-3 cells assessed as reduction in cell viability at 40 uM measured after 72 hrs by MTS assay
MDA-MB-231 = experiment: Cytotoxicity against human MDA-MB-231 cells assessed as reduction in cell viability at 40 uM measured after 72 hrs by MTS assay
KM12 = experiment: Cytotoxicity against human KM12 cells assessed as reduction in cell viability at 40 uM measured after 72 hrs by MTS assay
MCF7 = experiment: Cytotoxicity against human MCF7 cells assessed as reduction in cell viability at 40 uM measured after 72 hrs by MTS assay
MDA-MB-435 = experiment: Cytotoxicity against human MDA-MB-435 cells assessed as reduction in cell viability at 40 uM measured after 72 hrs by MTS assay
BT-549 = experiment: Cytotoxicity against human BT-549 cells assessed as reduction in cell viability at 40 uM measured after 72 hrs by MTS assay
SK-HEP1 = experiment: Cytotoxicity against human SK-HEP1 cells assessed as reduction in cell viability at 40 uM measured after 72 hrs by MTS assay
SW-620 = experiment: Cytotoxicity against human SW-620 cells assessed as reduction in cell viability at 40 uM measured after 72 hrs by MTS assay
HCC70 = experiment: Cytotoxicity against human HCC70 cells assessed as reduction in cell viability at 40 uM measured after 72 hrs by MTS assay
T47D = experiment: Cytotoxicity against human T47D cells assessed as reduction in cell viability at 40 uM measured after 72 hrs by MTS assay

Row | Structure (SMILES) | Activity (MDA-MB-468) | Activity (HCC38) | Activity (RKO) | Activity (Hs-578T) | Activity (HCT-116) | Activity (HCT-8) | Activity (SW480) | Activity (COLO 205) | Activity (HCC1428) | Activity (SK-BR-3) | Activity (MDA-MB-231) | Activity (KM12) | Activity (MCF7) | Activity (MDA-MB-435) | Activity (BT-549) | Activity (SK-HEP1) | Activity (SW-620) | Activity (HCC70) | Activity (T47D) | also measured
1 | CC(C)=CCC/C(C)=C/Cc1cc(/C=C/C(=O)O[C@@H](Cc2c(OCC=C(C)C)ccc3ccc(=O)oc23)C(C)(C)O)c(O)cc1O | – | – | – | – | – | – | – | – | – | – | – | – | – | – | – | – | – | – | – | IC50 (HT-29): 22.5 µM; IC50 (Huh-7): 14.9 µM; IC50 (HT-1080): 18.4 µM
2 | CC1=C[C@H](c2cc3ccc(=O)oc3cc2O[C@@H]2O[C@H](CO)[C@@H](O)[C@H](O)[C@H]2O)[C@@](C)(/C=C/c2cc3ccc(=O)oc3cc2O[C@@H]2O[C@H](COC3OC[C@@H](O)[C@H](O)[C@H]3O)[C@@H](O)[C@H](O)[C@H]2O)CC1 (some centres undefined) | inactive | inactive | inactive | inactive | inactive | inactive | inactive | inactive | inactive | inactive | inactive | inactive | inactive | inactive | inactive | inactive | inactive | inactive | inactive | –
3 | CC1=C[C@H](c2cc3ccc(=O)oc3cc2O[C@@H]2O[C@H](CO)[C@@H](O)[C@H](O)[C@H]2O)[C@](C)(/C=C/c2cc3ccc(=O)oc3cc2O[C@@H]2O[C@H](CO[C@@H]3OC[C@](O)(CO)[C@H]3O)[C@@H](O)[C@H](O)[C@H]2O)CC1 | inactive | inactive | inactive | inactive | inactive | inactive | inactive | inactive | inactive | inactive | inactive | inactive | inactive | inactive | inactive | inactive | inactive | inactive | inactive | –
4 | CC1=C[C@H](c2cc3ccc(=O)oc3cc2O[C@@H]2O[C@H](COC3OC[C@@H](O)[C@H](O)[C@H]3O)[C@@H](O)[C@H](O)[C@H]2O)[C@](C)(/C=C/c2cc3ccc(=O)oc3cc2O[C@@H]2O[C@H](COC3OC[C@@H](O)[C@H](O)[C@H]3O)[C@@H](O)[C@H](O)[C@H]2O)CC1 (some centres undefined) | inactive | inactive | inactive | inactive | inactive | inactive | inactive | inactive | inactive | inactive | inactive | inactive | inactive | inactive | inactive | inactive | inactive | inactive | inactive | –
5 | CC1=C[C@H](c2cc3ccc(=O)oc3cc2O[C@@H]2O[C@H](CO[C@@H]3OC[C@](O)(CO)[C@H]3O)[C@@H](O)[C@H](O)[C@H]2O)[C@](C)(/C=C/c2cc3ccc(=O)oc3cc2O[C@@H]2O[C@H](CO)[C@@H](O)[C@H](O)[C@H]2O)CC1 | inactive | inactive | inactive | inactive | inactive | inactive | inactive | inactive | inactive | inactive | inactive | inactive | inactive | inactive | inactive | inactive | inactive | inactive | inactive | –
